Results on three molecules are retold here after patent US6610747B2, “Phenoxybenzylamine derivatives as SSRIs” (Pfizer Inc., priority 2000, dated 2003).

pIC50: −log10 of the molar value.

In this assay the target is T1, human serotonin transporter (hSERT) (Homo sapiens, UniProt P31645).
T1 construct: expressed in transfected cells; host or cells: HEK-293
T1 sequence (P31645 whole entry): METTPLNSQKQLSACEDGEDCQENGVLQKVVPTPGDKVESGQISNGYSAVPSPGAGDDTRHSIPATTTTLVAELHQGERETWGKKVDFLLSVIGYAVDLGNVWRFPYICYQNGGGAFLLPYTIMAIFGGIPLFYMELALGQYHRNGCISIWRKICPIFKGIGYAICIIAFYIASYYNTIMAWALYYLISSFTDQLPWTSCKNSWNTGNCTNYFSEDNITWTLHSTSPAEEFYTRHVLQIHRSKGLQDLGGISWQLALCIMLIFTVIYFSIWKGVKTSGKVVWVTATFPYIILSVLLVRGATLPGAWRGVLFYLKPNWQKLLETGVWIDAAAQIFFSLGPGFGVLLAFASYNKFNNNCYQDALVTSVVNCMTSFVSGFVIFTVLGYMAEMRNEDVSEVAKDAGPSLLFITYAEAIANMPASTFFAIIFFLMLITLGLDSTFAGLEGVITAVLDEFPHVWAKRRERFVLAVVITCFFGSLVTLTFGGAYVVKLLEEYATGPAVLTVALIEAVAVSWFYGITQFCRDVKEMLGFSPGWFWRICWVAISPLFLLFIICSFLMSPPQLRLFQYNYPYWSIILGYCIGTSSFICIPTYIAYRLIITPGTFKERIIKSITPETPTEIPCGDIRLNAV
Kind of assay: Inhibition of 3H-serotonin uptake in HEK-293 cells stably transfected with the human serotonin transporter (SRI). Format: cell-based. Particulars: HEK-293 cells expressing hSERT; 3H-5HT (50 nM); 5 min incubation; room temperature; read-out: serotonin re-uptake inhibition (SRI) IC50. On the procedure: A number of compounds were tested for biological activity by their ability to inhibit the uptake of serotonin by human serotonin transporters as follows.
Human embryonic kidney cells (HEK-293) stably transfected with either the human serotonin transporter (hSERT), noradrenaline transporter (hNET) or dopamine transporter (hDAT) were cultured under standard cell culture techniques (cells were grown at 37° C. and 5% CO2 in DMEM-culture media (supplemented with 10% dialysed foetal calf serum (FCS), 2mM l-glutamine and 250 μg/ml geneticin)). Cells were harvested for the assay to yield a cell suspension of 750,000 cells/ml.
(i) Determination of Inhibitor Potency
All test compounds were dissolved in 100% DMSO and diluted down in assay buffer to give appropriate test concentrations. Assays were carried out in 96-well filter bottom plates. Cells (7500 cells/assay well) were pre-incubated in standard assay buffer containing either test compound, standard inhibitor or compound vehicle (1% DMSO) for 5 minutes. Reactions were started by addition of either ^3H-Serotonin, ^3H-Noradrenaline or ^3H-Dopamine substrates. All reactions were carried out at room temperature in a shaking incubator. Incubation times were 5 minutes for the hSERT and hDAT assays and 15 minutes for the hNET assay. Reactions were terminated by removal of the reaction mixture using a vacuum manifold followed by rapid washing with ice cold assay buffer. The quantity of ^3H-substrate incorporated into the cells was then quantified.
Assay plates were dried in a microwave oven, scintillation fluid added, and radioactivity measured.
(iii) Standard Assay Buffer Composition
Trizma hydrochloride (26 mM)
Note: The pH of the buffer was adjusted to 7.40 with 1M NaOH before addition of CaCl2 and pargyline.
(iv) Summary of Assay Parameters
As to `CNCc1cc(C(=O)NC)ccc1Oc1ccc2c(c1)CCS2` [Example 62, 4-(2,3-dihydro-1-benzothien-5-yloxy)-N-methyl-3-[(methylamino)methyl]-benzamide], the negative logarithm of the IC50 (pIC50) was 8.43. Under `CN(C)Cc1ccccc1Oc1ccc2ncccc2c1` [Example 29, N,N-dimethyl-N-[2-(6-quinolinyloxy)benzyl]amine] stands 8.70. `CN(C)Cc1cc(S(N)(=O)=O)ccc1Oc1ccc2c(c1)CCS2` [Example 16, 4-(2,3-dihydro-1-benzothien-5-yloxy)-3-[(dimethylamino)methyl]-benzenesulfonamide]: the pIC50 was 8.33.

For orientation: pIC50 means the negative decadic logarithm of the IC50, by convention in mol/L.
